Tests used:
[1] = system: NF-κB in RAW-Blue 264.7 macrophage cells; experiment: RAW-Blue 264.7 macrophage NF-κB assay (polymeric immunomodulator); assay type: cell-based; conditions: incubated 18 h at 37° C; QUANTIBlue absorbance 620 nm
Description: Cells were incubated with each compound for 18 h at 37° C. Supernatant was removed and incubated with QUANTIBlue for 1 h, and the absorbance at 620 nm was measured. Error bars represent standard deviation (SD). Samples were run in triplicate.
RAW264.7 Macrophage (RAW-Blue) NF-κB assay: RAW-Blue cells (passage 5-15) were plated in a 96 well plate at a density of 100,000 cells/well in 180 μL DMEM containing 10% heat-inactivated FBS (HI-FBS) and selective antibiotics. The cells were treated with agonists for […] at 37° C. and 5% CO2. NF-κB activity was measured by a QUANTI-Blue (InvivoGen) assay and the absorbance was measured at 620 nm using a Multiskan FC plate reader (Thermo Scientific).

BMDMs [2] = experiment: Flow cytometry of costimulatory molecules CD40 and CD86 on BMDMs; assay type: cell-based, C57Bl/6 mice; conditions: 18 h at 37° C
Description: FIGS. 2A-B show immune activation as measured by costimulatory molecules CD40 (FIG. 2A) and CD86 (FIG. 2B) on BMDMs. Cells were incubated with each compound for 18 h at 37° C. Error bars represent SD. Samples were run in triplicate. […] Each experiment was repeated thrice with similar results.
Flow Cytometry for Cell Surface Marker Upregulation: BMDCs were plated in untreated 12-well plates at 1×10^6 cells/mL and incubated with agonists in culture media for 18 h at 37° C. with 5% CO2. The cells were released from the plate by pipetting vigorously and centrifuged at 2500 RPM at 4° C. for 10 min. The cell pellet was resuspended in cold FACS buffer (PBS, 10% FBS, and 0.1% sodium azide) buffer (300 μL) and incubated with CD16/32 FcR blocking antibodies (1.0 μg/1×10^6 cells) on ice for 15 min. The cell suspension was pelleted, and the supernatant was removed. Next, the cell pellet was resuspended in cold FACS buffer (100 μL) and stained for CD86 and CD40 in the dark for 30 min. The samples were then washed twice with 300 μL FACS buffer. The pelleted cells were resuspended in cold FACS buffer (200 μL) and kept on ice until being loaded onto the flow cytometer for analysis.

BMDMs [3] = experiment: TNF-α in supernatant of BMDMs by ELISA; assay type: cell-based, C57Bl/6 mice; conditions: treated BMDMs; compared with pTLR7/8 and mTLR7/8
OVA = experiment: Serum anti-OVA IgG titers after OVA immunization (ELISA); assay type: in vivo, C57Bl/6 mice; conditions: immunized days 0 and 14; ELISA at 3 weeks
cells from the dLNs = experiment: Cytokines from draining lymph node cells re-stimulated with OVA (CBA); assay type: in vivo, C57Bl/6 mice; conditions: re-stimulated with OVA for 48 hours
[4] = with CPG in vaccine formulations; vaccine protective effects maintained; cited from earlier work
[5] = Systemic cytokines in CT26 tumor model after intratumoral injection; assay type: in vivo, Balb/c mice; conditions: 2 h after intratumoral injection
Description: FIGS. 17A-C (A) Outline of in vivo tumor model experiment. (B) Systemic IL-6 levels measured in the serum 2 h after intertumoral injection of compounds. (C) Systemic TNF-α levels measured in the serum 2 h after intertumoral injection of compounds.
0.2×10^6 CT-26 cells were injected subcutaneously into the flank of 6-week-old Balb/c mice (n=10 per group) in 100 μL of PBS. The tumor size was monitored on alternating days. Tumor volumes were measured using the equation V=1/2×L×W×W. When the tumors reached a size of approximately 75 mm3 (day 11), treatment was started. Various formulations (20 nmols of each agonist or PBS) were injected peritumorally every 4 days […]. Mice were euthanized when the tumors reached 20 mm in any linear dimension. Five mice for each group were used for blood analysis. Blood was collected two days post the first injection for hematological toxicity analysis and two hours post the second injection for systemic cytokine analysis.
After 11 days, the tumors were established and intratumoral injections were administered with the SMIP adjuvant and adjuvant dimers. At 2 h and 24 h after these injections, serum and blood were collected to examine systemic cytokines in the serum and perform a hematological analysis on the blood to better quantify adjuvant toxicity. Similar to the OVA vaccination model, the dimer adjuvants induced baseline levels of IL-6 and TNF-α as measured in the serum.

Question: With `CCCCc1nc2c(N)nc3ccccc3c2n1Cc1ccc(CNC(=O)CCCCCNC(=O)CCC(NC(=O)CNC(=O)C(CCC(=O)NCCCCCC(=O)NCc2ccc(Cn3c(CCCC)nc4c(N)nc5ccccc5c43)cc2)NC(=O)CNC(=O)C(CCC(=O)NCCCCCC(=O)NCc2ccc(Cn3c(CCCC)nc4c(N)nc5ccccc5c43)cc2)NC(=O)CNC(=O)C(CCC(=O)NCCCCCC(=O)NCc2ccc(Cn3c(CCCC)nc4c(N)nc5ccccc5c43)cc2)NC(=O)CNC(=O)C(CCC(=O)NCCCCCC(=O)NCc2ccc(Cn3c(CCCC)nc4c(N)nc5ccccc5c43)cc2)NC(=O)CCC(=O)N2Cc3ccccc3-c3nnn(CCCCCC(=O)NC(Cc4ccc(O)c(O)c4)C(=O)NC(Cc4ccc(O)c(O)c4)C(=O)NC(Cc4ccc(O)c(O)c4)C(=O)NC(Cc4ccc(O)c(O)c4)C(N)=O)c3-c3ccccc32)C(N)=O)cc1` (centres unmarked) [pTLR7/8_mod] as the compound, how does the NF-κB levels [1] read?
Answer: The NF-κB levels was “increased”.

Question: And the “levels of CD40” value (BMDMs [2])?
Answer: The value was “greatest increase”.

Question: And the “levels of CD86” value (BMDMs [2])?
Answer: The value was “greatest increase”.

Question: What about the “TNF-α concentration in supernatant” value (BMDMs [3]) of the same compound?
Answer: The value was “smallest increase”.

Question: What about the “serum titers of anti-OVA antibodies” value (OVA) of the same compound?
Answer: Its value is “Highest”.

Question: What about the “amount of IL-6 (FIG. 6B) produced by dLN cells” value (cells from the dLNs) of the same compound?
Answer: The value was “highest levels”.

Question: And the “amount of IL-23 (FIG. 6A) produced by dLN cells” value (cells from the dLNs)?
Answer: Its value is “highest levels”.

Question: What about the “amount of TNF-α (FIG. 6C) produced by dLN cells” value (cells from the dLNs) of the same compound?
Answer: Its value is “highest levels”.

Question: Which “pro-inflammatory systemic IL-6 and TNF-α levels” value [4] does the source give for `C=CCc1ccc(O)c(-c2ccc(O)c(CC=C)c2)c1` [honokiol] here?
Answer: Its value is “reduce”.

Question: Which “systemic IL-6 levels in serum” value [5] does the source give for `CCOCc1nc2c(N)nc3ccccc3c2n1CC(C)(C)O` [Compound R848, resiquimod] here?
Answer: Its value is “high levels”.

Question: And the “systemic TNF-α levels in serum” value [5]?
Answer: Its value is “high levels”.

Question: With `CCCCCCCCCCCCCCCCCC(=O)NCCCCOn1c(CCCC)nc2c(N)nc3ccccc3c21` [Compound 3M-052] as the compound, how does the “systemic IL-6 levels in serum” value [5] read?
Answer: Its value is “comparable”.

Question: What about the “systemic TNF-α levels in serum” value [5] of the same compound?
Answer: The value was “comparable”.

Question: Which “pro-inflammatory systemic IL-6 and TNF-α levels” value [4] does the source give for `COc1cc(CNC(=O)CCCC/C=C/C(C)C)ccc1O` [capsaicin] here?
Answer: Its value is “reduce”.

Reference: patent US20250041408A1, “SMALL MOLECULE IMMUNOPOTENTIATOR CONJUGATES OF NFKB ACTIVATORS AS ADJUVANTS WITH ENHANCED EFFICACY AND REDUCED TOXICITY” (THE UNIVERSITY OF CHICAGO, priority 2021, published 2025)
